{"source": "paper PMC11754895", "about": "(Nature Communications, 2025)", "target": "T1, OleTKM (Kocuria marina, UniProt A0A0B0D9P4)", "T1 sequence (A0A0B0D9P4 1-428)": "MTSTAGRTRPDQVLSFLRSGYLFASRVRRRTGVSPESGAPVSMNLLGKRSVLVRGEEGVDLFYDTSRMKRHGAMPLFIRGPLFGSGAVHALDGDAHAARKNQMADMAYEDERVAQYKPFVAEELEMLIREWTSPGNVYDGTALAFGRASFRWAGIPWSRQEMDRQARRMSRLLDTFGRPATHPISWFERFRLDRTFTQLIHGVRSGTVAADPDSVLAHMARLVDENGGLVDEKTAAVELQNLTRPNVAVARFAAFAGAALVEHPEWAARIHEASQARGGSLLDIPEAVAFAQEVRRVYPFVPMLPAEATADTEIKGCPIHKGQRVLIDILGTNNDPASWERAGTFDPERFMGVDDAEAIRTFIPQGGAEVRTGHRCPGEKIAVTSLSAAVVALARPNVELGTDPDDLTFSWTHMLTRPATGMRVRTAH", "experiment": "inhibition of myristic acid turnover", "format": "biochemical", "details": "even mixture of C14:0 and C18:1; competitive"}
{"smiles": "CCCCCCCC/C=C\\CCCCCCCC(=O)O", "note": "[oleic acid]", "values": [{"measurement": "inhibition of myristic acid turnover", "value": "presence of oleic acid impaired the activity of OleTKM against myristic acid (Fig. 1d)"}]}
